From PubChem BioAssay (NCI)
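Test compounds were applied to cells in 96-well plates for 48 hours at 5 doses. TGI: concentration producing complete growth inhibition.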

Experiments:
Experiment in all cases: inhibition of tumour cell growth, NCI panel, 48 h
786-0 renal = system: 786-0 renal
A498 renal = system: A498 renal
A549 NSCLC = system: A549 NSCLC
ACHN renal = system: ACHN renal
CAKI-1 renal = system: CAKI-1 renal
CCRF-CEM leukemia = system: CCRF-CEM leukemia
COLO 205 colon = system: COLO 205 colon
DLD-1 colon = system: DLD-1 colon
DMS 114 small cell lung = system: DMS 114 small cell lung
DMS 273 small cell lung = system: DMS 273 small cell lung
EKVX NSCLC = system: EKVX NSCLC
HCC-2998 colon = system: HCC-2998 colon
HCT-116 colon = system: HCT-116 colon
HCT-15 colon = system: HCT-15 colon
HL-60(TB) leukemia = system: HL-60(TB) leukemia
HOP-62 NSCLC = system: HOP-62 NSCLC
HOP-92 NSCLC = system: HOP-92 NSCLC
HT29 colon = system: HT29 colon
IGROV1 ovarian = system: IGROV1 ovarian
K-562 leukemia = system: K-562 leukemia
KM12 colon = system: KM12 colon
KM20L2 colon = system: KM20L2 colon
LOX IMVI melanoma = system: LOX IMVI melanoma
LXFL 529 NSCLC = system: LXFL 529 NSCLC
M14 melanoma = system: M14 melanoma
M19-MEL melanoma = system: M19-MEL melanoma
MALME-3M melanoma = system: MALME-3M melanoma
MOLT-4 leukemia = system: MOLT-4 leukemia
NCI-H226 lung = system: NCI-H226 lung
NCI-H23 lung = system: NCI-H23 lung
NCI-H460 lung = system: NCI-H460 lung
NCI-H522 lung = system: NCI-H522 lung
OVCAR-3 ovarian = system: OVCAR-3 ovarian
OVCAR-4 ovarian = system: OVCAR-4 ovarian
OVCAR-5 ovarian = system: OVCAR-5 ovarian
OVCAR-8 ovarian = system: OVCAR-8 ovarian
RPMI-8226 leukemia = system: RPMI-8226 leukemia
RXF 393 renal = system: RXF 393 renal
RXF-631 renal = system: RXF-631 renal
SF-268 CNS = system: SF-268 CNS
SF-295 CNS = system: SF-295 CNS
SF-539 CNS = system: SF-539 CNS
SK-MEL-2 melanoma = system: SK-MEL-2 melanoma
SK-MEL-28 melanoma = system: SK-MEL-28 melanoma
SK-MEL-5 melanoma = system: SK-MEL-5 melanoma
SK-OV-3 ovarian = system: SK-OV-3 ovarian
SN12C renal = system: SN12C renal
SNB-19 CNS = system: SNB-19 CNS
SNB-75 CNS = system: SNB-75 CNS
SNB-78 CNS = system: SNB-78 CNS
SR leukemia = system: SR leukemia
SW-620 colon = system: SW-620 colon
TK-10 renal = system: TK-10 renal
U251 CNS = system: U251 CNS
UACC-257 melanoma = system: UACC-257 melanoma
UACC-62 melanoma = system: UACC-62 melanoma
UO-31 renal = system: UO-31 renal
XF 498 CNS = system: XF 498 CNS

Measured: TGI

C[N+](C)(C)CCc1ccccc1
> 100 µM: all assays above

O=C1CC(c2c[nH]c3ccccc23)C(=O)N1 (configuration not stated)
not listed: COLO 205 colon | DMS 114 small cell lung | HOP-92 NSCLC | LOX IMVI melanoma | NCI-H522 lung | SF-268 CNS | SN12C renal | SNB-19 CNS | SR leukemia
> 100 µM: all other assays above
